Values of other authors in PubChem BioAssay AID1259409 (Chemical Carcinogenesis Research Information System (CCRIS), 2018).

Tested on: rodent chemically induced tumor inhibition, incidence and multiplicity
Test: CCRIS tumor inhibitor studies
Settings: Route [Inhibitor]: ORAL, Species: RAT, Promoter: NONE USED

SMILES: CC1=C(/C=C/C(C)=C/C=C/C(C)=C/C(=O)NCCO)C(C)(C)CCC1
- tumour outcome (control, treated, inhibition, significance) (Carcinogen: L-AZASERINE, 115-02-6, Dose [Inhibitor]: 2 MMOL/KG DIET DAILY FOR 336 D OUT OF 358 D STARTING 1 WK AFTER COMPLETION OF CARCINOGEN TREATMENT (STUDY DURATION: 66 W, Strain/Sex: WISTAR-LEWIS/FEMALE, Target Tissue: Type of Lesion: PANCREAS: ADENOMA, Dose [Carcinogen]: 10 MG/KG BW 1/WK FOR 15 WK): 50%, 13%, 74%, not significant
- tumour outcome (control, treated, inhibition, significance) (Carcinogen: L-AZASERINE, 115-02-6, Dose [Inhibitor]: 2 MMOL/KG DIET DAILY FOR 336 D OUT OF 358 D STARTING 1 WK AFTER COMPLETION OF CARCINOGEN TREATMENT (STUDY DURATION: 66 W, Strain/Sex: WISTAR-LEWIS/FEMALE, Target Tissue: Type of Lesion: PANCREAS: CARCINOMA IN SITU, Dose [Carcinogen]: 10 MG/KG BW 1/WK FOR 15 WK): 8%, 13%, -63%, not significant
- tumour outcome (control, treated, inhibition, significance) (Carcinogen: L-AZASERINE, 115-02-6, Dose [Inhibitor]: 2 MMOL/KG DIET DAILY FOR 336 D OUT OF 358 D STARTING 1 WK AFTER COMPLETION OF CARCINOGEN TREATMENT (STUDY DURATION: 66 W, Strain/Sex: WISTAR-LEWIS/FEMALE, Target Tissue: Type of Lesion: PANCREAS: CARCINOMA, Dose [Carcinogen]: 10 MG/KG BW 1/WK FOR 15 WK STARTING 15 WK PRIOR TO AGENT TREATMENT): ?/24 (13%), ?/24 (0%), 100%, not significant
- tumour outcome (control, treated, inhibition, significance) (Carcinogen: L-AZASERINE, 115-02-6, Dose [Inhibitor]: 2 MMOL/KG DIET DAILY FOR 336 D OUT OF 358 D STARTING 1 WK AFTER COMPLETION OF CARCINOGEN TREATMENT (STUDY DURATION: 66 W, Strain/Sex: WISTAR-LEWIS/MALE, Target Tissue: Type of Lesion: PANCREAS: ADENOMA, Dose [Carcinogen]: 10 MG/KG BW 1/WK FOR 15 WK): 25%, 28%, -12%, not significant
- tumour outcome (control, treated, inhibition, significance) (Carcinogen: L-AZASERINE, 115-02-6, Dose [Inhibitor]: 2 MMOL/KG DIET DAILY FOR 336 D OUT OF 358 D STARTING 1 WK AFTER COMPLETION OF CARCINOGEN TREATMENT (STUDY DURATION: 66 W, Strain/Sex: WISTAR-LEWIS/MALE, Target Tissue: Type of Lesion: PANCREAS: CARCINOMA IN SITU, Dose [Carcinogen]: 10 MG/KG BW 1/WK FOR 15 WK): 29%, 44%, -52%, not significant
- tumour outcome (control, treated, inhibition, significance) (Carcinogen: L-AZASERINE, 115-02-6, Dose [Inhibitor]: 2 MMOL/KG DIET DAILY FOR 336 D OUT OF 358 D STARTING 1 WK AFTER COMPLETION OF CARCINOGEN TREATMENT (STUDY DURATION: 66 W, Strain/Sex: WISTAR-LEWIS/MALE, Target Tissue: Type of Lesion: PANCREAS: CARCINOMA, Dose [Carcinogen]: 10 MG/KG BW 1/WK FOR 15 WK): 46%, 4%, 91%, p<0.05
- tumour outcome (control, treated, inhibition, significance) (Carcinogen: L-AZASERINE, 115-02-6, Dose [Inhibitor]: 2 MMOL/KG DIET DAILY FOR 336 D OUT OF 358 D STARTING 1 WK AFTER COMPLETION OF CARCINOGEN TREATMENT (STUDY DURATION: 66 W, Strain/Sex: WISTAR-LEWIS/MALE, Target Tissue: Type of Lesion: PANCREAS: NEOPLASM, Dose [Carcinogen]: 10 MG/KG BW 1/WK FOR 15 WK): 100%, 76%, 24%, not significant
- tumour outcome (control, treated, inhibition, significance) (Carcinogen: N-(4-(5-NITRO-2-FURYL)-2-THIAZOLYL)FORMAMIDE, 24554-26-5, Dose [Inhibitor]: 343 MG/KG DIET DAILY FOR 39 WK STARTING ONE WK FOLLOWING THE TERMINATION OF CARCINOGEN ADMINISTRATION (STUDY DURATION: 5, Strain/Sex: F344/FEMALE, Target Tissue: Type of Lesion: URINARY BLADDER: CARCINOMA, Dose [Carcinogen]: 2 G/KG IN DIET DAILY FOR 10 WK): 105/200 (53%), 67/100 (67%), -26%, p 0.0167
- tumour outcome (control, treated, inhibition, significance) (Carcinogen: N-(4-(5-NITRO-2-FURYL)-2-THIAZOLYL)FORMAMIDE, 24554-26-5, Dose [Inhibitor]: 343 MG/KG/D IN DIET FOR 39 WK STARTING 1 WK POST CARCINOGEN TREATMENT (STUDY DURATION: 50 WK), Strain/Sex: F344/FEMALE, Target Tissue: Type of Lesion: URINARY BLADDER: CARCINOMA, Dose [Carcinogen]: 2 G/KG/D IN DIET FOR 10 WK): 105/200 (53%), 67/100 (67%), -26%, p 0.0167
- tumour outcome (control, treated, inhibition, significance) (Carcinogen: N-(4-(5-NITRO-2-FURYL)-2-THIAZOLYL)FORMAMIDE, 24554-26-5, Dose [Inhibitor]: 343 MG/KG/D IN DIET FOR 39 WK STARTING 1 WK POST CARCINOGEN TREATMENT (STUDY DURATION: 50 WK), Strain/Sex: F344/FEMALE, Target Tissue: Type of Lesion: URINARY BLADDER: PAPILLOMA, Dose [Carcinogen]: 2 G/KG/D IN DIET FOR 10 WK): 15/200 (7.5%), 24/100 (24%), -220%, p 0.00006
- tumour outcome (control, treated, inhibition, significance) (Carcinogen: N-(4-(5-NITRO-2-FURYL)-2-THIAZOLYL)FORMAMIDE, 24554-26-5, Dose [Inhibitor]: 686 MG/KG DIET DAILY FOR 39 WK STARTING ONE WK FOLLOWING THE TERMINATION OF CARCINOGEN ADMINISTRATION (STUDY DURATION: 5, Strain/Sex: F344/FEMALE, Target Tissue: Type of Lesion: URINARY BLADDER: CARCINOMA, Dose [Carcinogen]: 2 G/KG IN DIET DAILY FOR 10 WK): 105/200 (53%), 49/100 (49%), 8%, p 0.5657
- tumour outcome (control, treated, inhibition, significance) (Carcinogen: N-(4-(5-NITRO-2-FURYL)-2-THIAZOLYL)FORMAMIDE, 24554-26-5, Dose [Inhibitor]: 686 MG/KG DIET DAILY FOR 39 WK STARTING ONE WK FOLLOWING THE TERMINATION OF CARCINOGEN ADMINISTRATION (STUDY DURATION: 5, Strain/Sex: F344/FEMALE, Target Tissue: Type of Lesion: URINARY BLADDER: PAPILLOMA, Dose [Carcinogen]: 2 G/KG IN DIET DAILY FOR 10 WK): 15/200 (8%), 17/100 (17%), -113%, p 0.012
